Test results from the CheMixHub ionic liquid set.

Assay: xn = mol fraction of the nth substance listed

CS(=O)(=O)[O-].C[N+](C)(CCO)CCO + CCO
viscosity [mPa·s], 101 kPa
Details | x1 = 0.099 | x1 = 0.2 | x1 = 0.2984 | x1 = 0.4 | x1 = 0.5005 | x1 = 0.6011 | x1 = 0.7008 | x1 = 0.7993 | x1 = 0.8954 | x1 = 1
298.15 K | 3.21 | 8.15 | 18.5 | 39.7 | 80.7 | 176 | 319 | 556 | 950 | 1495
303.15 K | 2.89 | 7.02 | 15.54 | 32.2 | 63.3 | 133.2 | 236 | 399 | 664 | 1021
308.15 K | 2.61 | 6.13 | 13.16 | 26.5 | 50.5 | 92.7 | 178 | 293 | 476 | 716
313.15 K | 2.32 | 5.38 | 11.4 | 22.1 | 41 | 73.2 | 136.8 | 221 | 350 | 513
318.15 K | 2.13 | 4.76 | 9.92 | 18.6 | 33.7 | 58.6 | 106.9 | 169 | 262 | 378
323.15 K | 1.9 | 4.24 | 8.58 | 15.85 | 28 | 47.6 | 76.5 | 132.1 | 201 | 282

CCCCCC[NH2+]CCN.O=S(=O)([N-]S(=O)(=O)C(F)(F)F)C(F)(F)F + O
101.3 kPa
Details | electrical conductivity [S/m] | viscosity [mPa·s]
308.15 K, x1 = 0.5022 | 0.182 | 77.8
318.15 K, x1 = 0.5763 | 0.188 | 50.3
323.15 K, x1 = 0.401 | 0.589 | 21.2
328.15 K, x1 = 0.5022 | 0.42 | 29.1
328.15 K, x1 = 0.6828 | 0.233 | 45.5
338.15 K, x1 = 0.5022 | 0.6 | 19.7
343.15 K, x1 = 0.6828 | 0.428 | 24.2
343.15 K, x1 = 0.8154 | 0.321 | 25.9
348.15 K, x1 = 0.401 | 1.29 | 9
348.15 K, x1 = 0.5763 | 0.625 | 15
353.15 K, x1 = 0.5763 | 0.729 | 12.8

O=S(=O)([N-]S(=O)(=O)C(F)(F)F)C(F)(F)F.[Li+] + O=S(=O)([O-])C(F)(F)F.[Li+] + O
viscosity [mPa·s], 100 kPa
Details | x2 = 0, x1 = 0.112 | x2 = 0, x1 = 0.1896 | x2 = 0, x1 = 0.2333 | x2 = 0, x1 = 0.2547 | x2 = 0, x1 = 0.2741
298.15 K | 5.2 | 15.8 | 30.7 | 42.3 | 54.1
308.15 K | 4.3 | 11.5 | 21.5 | 29 | 36.1
318.15 K | 3.4 | 8.6 | 15.8 | 20.9 | 25.5
328.15 K | 2.8 | 6.6 | 12 | 15.6 | 18.7

O=S(=O)([N-]S(=O)(=O)C(F)(F)F)C(F)(F)F.[Li+] + CC[n+]1ccn(C)c1.O=S(=O)([O-])C(F)(F)F
electrical conductivity [S/m], 101 kPa
Details | x1 = 0.007746 | x1 = 0.01537 | x2 = 0.9697 | x2 = 0.9746
288.15 K | 0.587 | 0.557 | – | 0.538
298.15 K | 0.844 | 0.823 | 0.778 | 0.785
333.15 K | 2.14 | 2.13 | 2.04 | 2.04

OCCO + CCOS(=O)(=O)[O-].CC[n+]1ccn(C)c1
100 kPa, x1 = 1
Details | viscosity [mPa·s]
298.15 K | 16.8
303.15 K | 13.8

O=S(=O)([N-]S(=O)(=O)C(F)(F)F)C(F)(F)F.[Li+] + CC[n+]1ccn(C)c1.O=S(=O)([N-]S(=O)(=O)C(F)(F)F)C(F)(F)F + O
Details | electrical conductivity [S/m] | viscosity [mPa·s]
283 K, 101 kPa, x1 = 0.2649, x2 = 0 | 0.62 | –
283 K, 101 kPa, x1 = 0.2649, x2 = 0.2649 | 0.37 | 90.3
283 K, 101 kPa, x1 = 0.4189, x2 = 0.2649 | 0.049 | –
293 K, 101 kPa, x1 = 0.2649, x2 = 0 | 0.89 | 69.2
293 K, 101 kPa, x1 = 0.2649, x2 = 0.2649 | 0.56 | 55
293 K, 101 kPa, x1 = 0.4189, x2 = 0.2649 | 0.093 | 407
293.15 K, 100 kPa, x1 = 0.2745, x2 = 0.3509 | – | 55.7
293.15 K, 100 kPa, x1 = 0.3106, x2 = 0.3509 | – | 71.5
293.15 K, 100 kPa, x1 = 0.3509, x2 = 0.3509 | – | 111
293.15 K, 100 kPa, x1 = 0.3868, x2 = 0.3509 | – | 157
293.15 K, 100 kPa, x1 = 0.4189, x2 = 0.3509 | – | 220
293.15 K, 100 kPa, x1 = 0.4478, x2 = 0.3509 | – | 312
293.15 K, 100 kPa, x1 = 0.474, x2 = 0.3509 | – | 470
293.15 K, 100 kPa, x1 = 0.4978, x2 = 0.3509 | – | 715
298.1 K, 101 kPa, x1 = 0.2649, x2 = 0 | 1.04 | 55.3
298.1 K, 101 kPa, x1 = 0.2649, x2 = 0.2649 | 0.67 | 44.2
298.1 K, 101 kPa, x1 = 0.4189, x2 = 0.2649 | 0.12 | 293
298.15 K, 100 kPa, x1 = 0.2745, x2 = 0.3509 | – | 43.1
298.15 K, 100 kPa, x1 = 0.3106, x2 = 0.3509 | – | 55.3
298.15 K, 100 kPa, x1 = 0.3509, x2 = 0.3509 | – | 86.4
298.15 K, 100 kPa, x1 = 0.3868, x2 = 0.3509 | – | 120
298.15 K, 100 kPa, x1 = 0.4189, x2 = 0.3509 | – | 164
298.15 K, 100 kPa, x1 = 0.4478, x2 = 0.3509 | – | 227
298.15 K, 100 kPa, x1 = 0.474, x2 = 0.3509 | – | 336
298.15 K, 100 kPa, x1 = 0.4978, x2 = 0.3509 | – | 497
303 K, 101 kPa, x1 = 0.2649, x2 = 0 | 1.22 | 45.4
303 K, 101 kPa, x1 = 0.2649, x2 = 0.2649 | 0.8 | 36
303 K, 101 kPa, x1 = 0.4189, x2 = 0.2649 | 0.16 | 216
303.15 K, 100 kPa, x1 = 0.2745, x2 = 0.3509 | – | 34.6
303.15 K, 100 kPa, x1 = 0.3106, x2 = 0.3509 | – | 44.4
303.15 K, 100 kPa, x1 = 0.3509, x2 = 0.3509 | – | 62.3
303.15 K, 100 kPa, x1 = 0.3868, x2 = 0.3509 | – | 92.4
303.15 K, 100 kPa, x1 = 0.4189, x2 = 0.3509 | – | 126
303.15 K, 100 kPa, x1 = 0.4478, x2 = 0.3509 | – | 171
303.15 K, 100 kPa, x1 = 0.474, x2 = 0.3509 | – | 245
303.15 K, 100 kPa, x1 = 0.4978, x2 = 0.3509 | – | 356
313 K, 101 kPa, x1 = 0.2649, x2 = 0 | 1.6 | 30.9
313 K, 101 kPa, x1 = 0.2649, x2 = 0.2649 | 1.1 | 24.9
313 K, 101 kPa, x1 = 0.4189, x2 = 0.2649 | 0.25 | 125
313.15 K, 100 kPa, x1 = 0.2745, x2 = 0.3509 | – | 23.4
313.15 K, 100 kPa, x1 = 0.3106, x2 = 0.3509 | – | 30.1
313.15 K, 100 kPa, x1 = 0.3509, x2 = 0.3509 | – | 41.2
313.15 K, 100 kPa, x1 = 0.3868, x2 = 0.3509 | – | 57.6
313.15 K, 100 kPa, x1 = 0.4189, x2 = 0.3509 | – | 78.2
313.15 K, 100 kPa, x1 = 0.4478, x2 = 0.3509 | – | 102
313.15 K, 100 kPa, x1 = 0.474, x2 = 0.3509 | – | 142
313.15 K, 100 kPa, x1 = 0.4978, x2 = 0.3509 | – | 197
323 K, 101 kPa, x1 = 0.2649, x2 = 0 | 2.04 | 21.8
323 K, 101 kPa, x1 = 0.2649, x2 = 0.2649 | 1.45 | 18.2
323 K, 101 kPa, x1 = 0.4189, x2 = 0.2649 | 0.38 | 78.5
323.15 K, 100 kPa, x1 = 0.2745, x2 = 0.3509 | – | 16.7
323.15 K, 100 kPa, x1 = 0.3106, x2 = 0.3509 | – | 21.4
323.15 K, 100 kPa, x1 = 0.3509, x2 = 0.3509 | – | 29
323.15 K, 100 kPa, x1 = 0.3868, x2 = 0.3509 | – | 39
323.15 K, 100 kPa, x1 = 0.4189, x2 = 0.3509 | – | 50.9
323.15 K, 100 kPa, x1 = 0.4478, x2 = 0.3509 | – | 61.3
323.15 K, 100 kPa, x1 = 0.474, x2 = 0.3509 | – | 89.2
323.15 K, 100 kPa, x1 = 0.4978, x2 = 0.3509 | – | 120
333 K, 101 kPa, x1 = 0.2649, x2 = 0 | 2.58 | 16.2
333 K, 101 kPa, x1 = 0.2649, x2 = 0.2649 | 1.83 | 13.8
333 K, 101 kPa, x1 = 0.4189, x2 = 0.2649 | 0.53 | 51.9
333.15 K, 100 kPa, x1 = 0.2745, x2 = 0.3509 | – | 12.4
333.15 K, 100 kPa, x1 = 0.3106, x2 = 0.3509 | – | 15.9
333.15 K, 100 kPa, x1 = 0.3509, x2 = 0.3509 | – | 20.1
333.15 K, 100 kPa, x1 = 0.3868, x2 = 0.3509 | – | 26.2
333.15 K, 100 kPa, x1 = 0.4189, x2 = 0.3509 | – | 34.2
333.15 K, 100 kPa, x1 = 0.4478, x2 = 0.3509 | – | 41.8
333.15 K, 100 kPa, x1 = 0.474, x2 = 0.3509 | – | 53.7
333.15 K, 100 kPa, x1 = 0.4978, x2 = 0.3509 | – | 78.1
343.15 K, 100 kPa, x1 = 0.2745, x2 = 0.3509 | – | 9.49
343.15 K, 100 kPa, x1 = 0.3106, x2 = 0.3509 | – | 12.2
343.15 K, 100 kPa, x1 = 0.3509, x2 = 0.3509 | – | 15.2
343.15 K, 100 kPa, x1 = 0.3868, x2 = 0.3509 | – | 19.1
343.15 K, 100 kPa, x1 = 0.4189, x2 = 0.3509 | – | 24.5
343.15 K, 100 kPa, x1 = 0.4478, x2 = 0.3509 | – | 29.6
343.15 K, 100 kPa, x1 = 0.474, x2 = 0.3509 | – | 37.2
343.15 K, 100 kPa, x1 = 0.4978, x2 = 0.3509 | – | 49.7
353.15 K, 100 kPa, x1 = 0.2745, x2 = 0.3509 | – | 7.49
353.15 K, 100 kPa, x1 = 0.3106, x2 = 0.3509 | – | 9.62
353.15 K, 100 kPa, x1 = 0.3509, x2 = 0.3509 | – | 11.8
353.15 K, 100 kPa, x1 = 0.3868, x2 = 0.3509 | – | 14.5
353.15 K, 100 kPa, x1 = 0.4189, x2 = 0.3509 | – | 18.4
353.15 K, 100 kPa, x1 = 0.4478, x2 = 0.3509 | – | 21.9
353.15 K, 100 kPa, x1 = 0.474, x2 = 0.3509 | – | 27
353.15 K, 100 kPa, x1 = 0.4978, x2 = 0.3509 | – | 35
363.15 K, 100 kPa, x1 = 0.2745, x2 = 0.3509 | – | 6.01
363.15 K, 100 kPa, x1 = 0.3106, x2 = 0.3509 | – | 7.72
363.15 K, 100 kPa, x1 = 0.3509, x2 = 0.3509 | – | 9.69
363.15 K, 100 kPa, x1 = 0.3868, x2 = 0.3509 | – | 11.3
363.15 K, 100 kPa, x1 = 0.4189, x2 = 0.3509 | – | 14.2
363.15 K, 100 kPa, x1 = 0.4478, x2 = 0.3509 | – | 16.6
363.15 K, 100 kPa, x1 = 0.474, x2 = 0.3509 | – | 20.3
363.15 K, 100 kPa, x1 = 0.4978, x2 = 0.3509 | – | 25.7
